Test results from patent US6043279A, “Compounds having selective activity for retinoid X receptors, and means for modulation of processes mediated by retinoid X receptors” (priority 1997, dated 2000).

Tests used:
Format in all cases: cell-based
[1] = molecular target: T1, RARβ (Homo sapiens, UniProt P10826); experiment: co-transfection (cis-trans) assay in CV-1 cells, RARβ; conditions: for Emax: CV-1, maximal response relative to all-trans-retinoic acid at 10^-5 M, read-out: Efficacy RARβ; for EC50: CV-1 cells, luciferase reporter, concentration giving 50% of maximal observed response, read-out: Potency (nM) RARβ
T1 construct: expressed in transfected cells; host or cells: CV-1 (monkey kidney)
T1 sequence (P10826 1-448 isoform P10826-2): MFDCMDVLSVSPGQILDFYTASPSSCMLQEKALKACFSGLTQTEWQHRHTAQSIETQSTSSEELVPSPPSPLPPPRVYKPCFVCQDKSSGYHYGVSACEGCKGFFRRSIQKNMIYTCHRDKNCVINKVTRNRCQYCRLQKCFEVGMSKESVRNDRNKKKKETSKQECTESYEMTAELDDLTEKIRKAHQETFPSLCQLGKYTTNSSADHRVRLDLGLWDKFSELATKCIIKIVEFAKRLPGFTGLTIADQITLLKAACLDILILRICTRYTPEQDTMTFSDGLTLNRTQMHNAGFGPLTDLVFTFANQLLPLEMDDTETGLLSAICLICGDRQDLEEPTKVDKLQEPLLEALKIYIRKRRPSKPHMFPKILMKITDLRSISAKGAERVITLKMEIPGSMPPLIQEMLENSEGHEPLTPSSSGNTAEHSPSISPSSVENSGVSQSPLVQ
From the text: (§1) The co-transfection assay provides a mechanism to evaluate the ability of a compound to modulate the transcription response initiated by an intracellular receptor. […] Berger et al., J. Steroid Biochem. Molec.
(§2) Briefly, the co-transfection assay involves the introduction of two plasmids by transient transfection into a retinoid receptor-negative mammalian cell background. The first plasmid contains a retinoid receptor cDNA and directs constitutive expression of the encoded receptor. The second plasmid contains a cDNA that encodes for a readily quantifiable protein, e.g., firefly luciferase or chloramphenicol acetyl transferase (CAT), under control of a promoter containing a retinoid acid response element, which confers retinoid dependence on the transcription of the reporter. In this co-transfection assay, all retinoid receptors respond to all-trans-retinoic acid in a similar fashion. This assay can be used to accurately measure efficacy and potency of retinoic acid and synthetic retinoids as ligands that interact with the individual retinoid receptor subtypes.
(§3) Accordingly, synthetic retinoid compounds of the current invention were evaluated for their interaction with retinoid receptor subtypes using the co-transfection assay in which CV-1 cells were co-transfected with one of the retinoid receptor subtypes, a reporter construct, and an internal control to allow normalization of the response for transfection efficiency. The following example is illustrative.
(§4) Retinoids: All-trans-retinoic acid (RA) and 13-cis-retinoic acid (13-cis-RA) were obtained from Sigma. […] Retinoids were dissolved in dimethylsulfoxide for use in the transcriptional activation assays.
(§5) Co-transfection Assay In CV-1 Cells: A monkey kidney cell line, CV-1, was used in the cis-trans assay. Cells were transfected with two plasmids. […] The cis-vector contains an easily assayable gene product, in this case the firefly luciferase, coupled to a retinoid-responsive promoter, i.e., an RARE or RXRE. Addition of retinoic acid or an appropriate synthetic retinoid results in the formation of a retinoid-RAR or -RXR complex that activates the expression of luciferase gene, causing light to be emitted from cell extracts. The level of luciferase activity is directly proportional to the effectiveness of the retinoid-receptor complex in activating gene expression. This sensitive and reproducible co-transfection approach permits the identification of retinoids that interact with the different receptor isoforms.
(§6) Cells were cultured in DMEM supplemented with 10% charcoal resin-stripped fetal bovine serum, and experiments were conducted in 96-well plates. […] Cells were transfected for 6 h and then washed to remove the precipitate. The cells were then incubated for 36 h with or without retinoid. […]

[2] = molecular target: T2, RXRβ (Mus musculus, UniProt P28704); experiment: co-transfection (cis-trans) assay in CV-1 cells, RXRβ; conditions: for Emax: CV-1, maximal response relative to all-trans-retinoic acid at 10^-5 M, read-out: Efficacy RXRβ; for EC50: CV-1 cells, luciferase reporter, concentration giving 50% of maximal observed response, read-out: Potency (nM) RXRβ
T2 construct: expressed in transfected cells; host or cells: CV-1 (monkey kidney)
T2 sequence (P28704 1-520): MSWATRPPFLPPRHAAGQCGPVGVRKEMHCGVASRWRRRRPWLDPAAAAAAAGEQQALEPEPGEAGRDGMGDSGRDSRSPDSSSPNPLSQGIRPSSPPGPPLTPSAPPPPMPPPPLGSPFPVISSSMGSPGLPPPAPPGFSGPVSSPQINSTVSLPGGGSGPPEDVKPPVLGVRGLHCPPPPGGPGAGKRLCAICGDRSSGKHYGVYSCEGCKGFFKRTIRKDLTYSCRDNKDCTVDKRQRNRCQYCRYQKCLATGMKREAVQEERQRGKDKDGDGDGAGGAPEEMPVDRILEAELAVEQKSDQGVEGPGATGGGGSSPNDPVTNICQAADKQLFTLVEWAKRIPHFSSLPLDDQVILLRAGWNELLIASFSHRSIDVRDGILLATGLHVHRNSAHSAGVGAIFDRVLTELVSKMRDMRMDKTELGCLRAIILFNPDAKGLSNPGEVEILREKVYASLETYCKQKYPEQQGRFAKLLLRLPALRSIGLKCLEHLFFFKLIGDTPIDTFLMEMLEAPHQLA
From the text: as §1, §2, §3, §4, §5
Cells were cultured in DMEM supplemented with 10% charcoal resin-stripped fetal bovine serum, and experiments were conducted in 96-well plates. […] Cells were transfected for 6 h and then washed to remove the precipitate. The cells were then incubated for 36 h with or without retinoid. After the transfection, all subsequent steps were performed on a Beckman Biomek Automated Workstation. […] All determinations were performed in triplicate in two independent experiments and were normalized for transfection efficiency by using β-galactosidase as the internal control. […] Efficacy values less than 5% are not statistically different than the 0% background.

[3] = molecular target: T3, RXRγ (Mus musculus, UniProt P28705); experiment: co-transfection (cis-trans) assay in CV-1 cells, RXRγ; conditions: for Emax at 10 µM: CV-1, maximal response relative to all-trans-retinoic acid at 10^-5 M, read-out: Efficacy RXRγ; for EC50: CV-1 cells, luciferase reporter, concentration giving 50% of maximal observed response, read-out: Potency (nM) RXRγ
T3 construct: expressed in transfected cells; host or cells: CV-1 (monkey kidney)
T3 sequence (P28705 1-463): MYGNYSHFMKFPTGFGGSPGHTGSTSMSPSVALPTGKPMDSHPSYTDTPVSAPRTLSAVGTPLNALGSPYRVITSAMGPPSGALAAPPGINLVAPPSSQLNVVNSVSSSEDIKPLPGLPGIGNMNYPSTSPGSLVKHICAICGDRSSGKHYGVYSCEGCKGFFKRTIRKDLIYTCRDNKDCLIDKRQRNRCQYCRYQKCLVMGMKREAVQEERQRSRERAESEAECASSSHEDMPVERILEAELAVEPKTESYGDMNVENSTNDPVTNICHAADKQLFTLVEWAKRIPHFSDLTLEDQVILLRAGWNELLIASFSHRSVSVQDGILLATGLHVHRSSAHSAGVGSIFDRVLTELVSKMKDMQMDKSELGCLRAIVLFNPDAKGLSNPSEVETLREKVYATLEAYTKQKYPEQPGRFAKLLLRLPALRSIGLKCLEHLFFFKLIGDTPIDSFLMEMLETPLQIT
From the text: as §1, §2, §3, §4, §5, §6

| Emax [1] [%] | EC50 [1] [nM] | Emax [2] [%] | EC50 [2] [nM] | Emax at 10 µM [3] [%] | EC50 [3] [nM] | Structure (SMILES) |
| --- | --- | --- | --- | --- | --- | --- |
| < 2 | > 10000 | 57 | 270 | 50 | 190 | Cc1cc(C(C)(C)C)ccc1C(=NO)c1ccc(C(=O)O)cc1 [Compound 137, 4-[(2-methyl-4-t-butylphenyl)carbonyl]benzoic acid oxime] |
| < 2 | > 10000 | 56 | 470 | 91 | 290 | C=C(c1ccc(C(=O)O)cc1)c1ccc(C(C)(C)C)cc1C [Compound 133, 4-[1-(2-methyl-4-t-butylphenyl)ethenyl]benzoic acid] |
